Three compounds from patent US20120263719A1, “COMPOSITIONS AND METHODS FOR TREATING ASPERGILLOSIS” (priority 2009, published 2012) can be followed below.

Test [1] concerns AF-infected mice. As to the kind of experiment: Animal survival experiment in AF-infected immunosuppressed mice (36 days). Particulars: group 8: 1 mg/kg i.t. The class given is in vivo.
Test [2] deals with Aspergillus fumigatus. As to the kind of experiment: In vitro antifungal activity (NCCLS M27-A; MIC/MFC, hyphal growth). The test is classed as cell-based. Particulars: for MFC: Aspergillus fumigatus. The method, then: The antifungal activity of mAb (MPS5.44)-alliinase conjugates was determined according to the conditions of National Committee for Clinical Laboratory Standards (NCCLS) document M27-A. Resting conidia (3×10^4 conidia/well) were seeded in 96-well plates and incubated for 4 hours at 37° C. with RPMI/MOPS (100 μl). mAb-alliinase conjugate was applied in serial 2-fold dilutions, in triplicates and incubated for 30 min at 37° C., then washed four times followed by the addition of alliin (0.5 mg/ml). Hyphal growth was monitored by microscopic observation as well as by optical density (OD595), or by fluorescence of the strain CBS/DsRed (excitation at 540 nm, emission at 595 nm). The MIC of the conjugate was determined after 72 hours. The wells in which no fungal germination was detected, were scraped and plated on Sabouraud plates and the number of colonies was counted after 72 hours to determine the MFC. As a control, the antifungal activity was also determined by incubating AF as above with non-conjugated alliinase or with conjugates consisting of the non-specific mAb and alliinase.

≈ marks a conversion by molar mass, not a printed value. Read-outs that look alike come from different tables or passages of the source.

For the compound `C[C@@H]1[C@H](O)[C@@H](C)/C=C/C=C/C=C/C=C/C=C/C=C/C=C/[C@H](O[C@@H]2O[C@H](C)[C@@H](O)[C@H](N)[C@@H]2O)C[C@@H]2O[C@](O)(C[C@@H](O)C[C@@H](O)[C@H](O)CC[C@@H](O)C[C@@H](O)CC(=O)O[C@H]1C)C[C@H](O)[C@H]2C(=O)O` [Amphotericin B], in test [1] (n=10), the MST amounted to 18 days. In test [1] (n=10, 36 d), the “survival at the end of the experiment” value was determined as 30%.

Consider `C=CCS[S+]([O-])CC=C` (stereo not drawn) [allicin, diallyl-dithiosulfinate], for which the MFC in test [2] (read-out: MFC, resting conidia) is 15 mg/L (≈ 92.4 µM); in test [2] (read-out: MFC, swollen conidia) it was 7.5 mg/L (≈ 46.2 µM); in test [2] (pure allicin, data not shown, read-out: MFC, hyphae), 30 mg/L (≈ 185 µM).

As for (+)S-Allyl-cysteine sulfoxide [alliin], the “growth of Aspergillus cells treated with one component only” value in test [2] (alliin without conjugate, or conjugate without alliin) is “not inhibited in their growth”.

Usually MFC stands for the smallest concentration meeting the test's criterion for killing the fungus.
